In experiment [1] the target is T1, Human Mer (Homo sapiens, UniProt Q12866).
T1 construct: Human Mer (residues R557-E882 with H628Q and R794A, 0.7 nM); purchased Eurofins Pharma Discovery Services UK Limited (KinaseProfiler service)
T1 sequence (Q12866 557-882 limits assumed): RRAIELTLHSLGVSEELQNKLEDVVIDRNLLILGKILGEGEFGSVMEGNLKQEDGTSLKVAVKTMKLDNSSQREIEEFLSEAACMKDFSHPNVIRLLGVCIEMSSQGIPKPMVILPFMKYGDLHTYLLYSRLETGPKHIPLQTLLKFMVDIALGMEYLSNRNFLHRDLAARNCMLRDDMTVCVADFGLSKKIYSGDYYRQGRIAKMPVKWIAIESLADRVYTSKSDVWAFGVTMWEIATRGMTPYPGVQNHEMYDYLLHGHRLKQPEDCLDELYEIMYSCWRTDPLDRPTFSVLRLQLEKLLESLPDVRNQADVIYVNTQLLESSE
The experiment is described as follows: Human Mer kinase assay (33P radiometric / HTRF KinEase). It counts as biochemical. The note with it: protocols of Examples C-1 and/or C-2. Summed up: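 Two formats yield IC50 values. HTRF KinEase used MER residues 528-999 with ATP at Km (40 μM), 1 μM biotin-peptide, 60 min RT, […], 10 concentrations. 33P filter assay used 0.7 nM Mer R557-E882 (H628Q/R794A), 10 μM ATP, 250 μM peptide, 40 min RT, top 1 μM.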
A general note: Time-resolved FRET reads energy transfer from a long-lived donor to a nearby acceptor.

Experiment [2] deals with T2, Human Met (Homo sapiens, UniProt P08581).
T2 construct: Human MET (residues 956-1390)
The experiment is described as follows: Human Met kinase assay (33P radiometric / HTRF KinEase). It counts as biochemical. The following applies: protocols of Examples D-1 and/or D-2; read-out: c-Met IC50. Summed up:
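Two formats gave IC50s by curve fitting. HTRF KinEase used MET residues 956-1390 with 1 μM biotin-peptide and 3.0 μM ATP (Km) for 40 min at room temperature, ten doses in 3% DMSO, 665/620 nm read. The 33P transfer assay used mutant Met R974-S1390 A1209G/V1290L (3.4 nM), 10 μM ATP, 250 μM peptide, pH 7.0, 40 min, nine doses from 1 μM.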

This is an account of results in patent US20240158393A1, “PYRIDONE COMPOUNDS AND METHODS OF USE” (Exelixis, Inc., priority 2021, published 2024).

T2 sequence (P08581 974-1390 limits assumed): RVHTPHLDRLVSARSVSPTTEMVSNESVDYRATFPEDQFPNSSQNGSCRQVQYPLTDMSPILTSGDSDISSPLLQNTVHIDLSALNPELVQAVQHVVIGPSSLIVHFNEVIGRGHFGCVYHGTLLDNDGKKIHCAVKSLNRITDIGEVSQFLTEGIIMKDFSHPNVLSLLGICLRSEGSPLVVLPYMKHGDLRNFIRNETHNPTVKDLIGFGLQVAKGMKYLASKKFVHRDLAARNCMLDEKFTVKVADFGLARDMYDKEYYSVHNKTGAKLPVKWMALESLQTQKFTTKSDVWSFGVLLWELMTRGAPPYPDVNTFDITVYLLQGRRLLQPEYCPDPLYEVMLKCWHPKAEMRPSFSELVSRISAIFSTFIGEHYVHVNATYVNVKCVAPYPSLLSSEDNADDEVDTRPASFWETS

By IC50 is commonly meant the concentration that inhibits the measured activity by half. As for `COCCOc1cc2nccc(Oc3cc(F)c(NC(=O)c4c(C)n(C)c(C)c(C#N)c4=O)cc3F)c2nc1OC` [Compound 83, 5-Cyano-N-[2,5-difluoro-4-[[6-methoxy-7-(2-methoxyethoxy)-1,5-naphthyridin-4-yl]oxy]phenyl]-1,2,6-trimethyl-4-oxopyridine-3-carboxamide], the IC50 in experiment [1] and in experiment [2] was greater than 300 nM in each case.

`COc1cc2nccc(Oc3ccc(NC(=O)c4c(C)nc(C)c(C(N)=O)c4O)cc3F)c2nc1OC` [Compound 84, 3-N-[4-[(6,7-Dimethoxy-1,5-naphthyridin-4-yl)oxy]-3-fluorophenyl]-4-hydroxy-2,6-dimethylpyridine-3,5-dicarboxamide]: the IC50 in experiment [1] and in experiment [2] was greater than 300 nM each time.

For `COc1cc2nccc(Oc3ccc(NC(=O)c4c(C)nc(C)c(C(N)=O)c4O)cc3)c2nc1OC` [Compound 85, 3-N-[4-[(6,7-Dimethoxy-1,5-naphthyridin-4-yl)oxy]phenyl]-4-hydroxy-2,6-dimethylpyridine-3,5-dicarboxamide], the IC50 in experiment [1] and in experiment [2] was greater than 300 nM each time.

Regarding `COCCOc1cc2nccc(Oc3cc(F)c(NC(=O)c4c(C)nc(C)c(C(N)=O)c4O)cc3F)c2nc1OC` [Compound 86, 3-N-[2,5-Difluoro-4-[[6-methoxy-7-(2-methoxyethoxy)-1,5-naphthyridin-4-yl]oxy]phenyl]-4-hydroxy-2,6-dimethylpyridine-3,5-dicarboxamide], the IC50 in experiment [1] and in experiment [2] was greater than 300 nM in each case.

Take `COc1cc2nccc(Oc3ccc(NC(=O)c4c(C)nc(C)c(C#N)c4O)cc3F)c2nc1OC` [Compound 87, 5-Cyano-N-[4-[(6,7-dimethoxy-1,5-naphthyridin-4-yl)oxy]-3-fluorophenyl]-4-hydroxy-2,6-dimethylpyridine-3-carboxamide]: the IC50 in experiment [1] and in experiment [2] was greater than 300 nM each time.

Turning to `COc1cc2nccc(Oc3ccc(NC(=O)c4c(C)n(C)c(C)c(N5CCOCC5)c4=O)cc3F)c2nc1OC` [Compound 88, N-[4-[(6,7-Dimethoxy-1,5-naphthyridin-4-yl)oxy]-3-fluorophenyl]-1,2,6-trimethyl-5-morpholin-4-yl-4-oxopyridine-3-carboxamide], the half-inhibitory concentration (IC50) in experiment [1] is no more than 100 nM; in experiment [2] it was greater than 300 nM.

Consider `COc1cc2nccc(Oc3ccc(NC(=O)c4c(C)n(C)c(C)c(N5CCCC5)c4=O)cc3F)c2nc1OC` [Compound 89, N-[4-[(6,7-Dimethoxy-1,5-naphthyridin-4-yl)oxy]-3-fluorophenyl]-1,2,6-trimethyl-4-oxo-5-pyrrolidin-1-ylpyridine-3-carboxamide], for which the IC50 in experiment [1] and in experiment [2] was no more than 100 nM throughout.

For `COc1cc2nccc(Oc3ccc(NC(=O)c4c(C)n(C)c(C)c(N5CCCCC5)c4=O)cc3F)c2nc1OC` [Compound 90, N-[4-[(6,7-dimethoxy-1,5-naphthyridin-4-yl)oxy]-3-fluorophenyl]-1,2,6-trimethyl-4-oxo-5-piperidin-1-ylpyridine-3-carboxamide], the IC50 in experiment [1] is no more than 100 nM; in experiment [2], greater than 300 nM.

Take `COc1cnc2c(Oc3ccc(NC(=O)c4c(C)nc(C)c(C(N)=O)c4O)cc3F)ccnc2c1` [Compound 91, 3-N-[3-Fluoro-4-[(7-methoxy-1,5-naphthyridin-4-yl)oxy]phenyl]-4-hydroxy-2,6-dimethylpyridine-3,5-dicarboxamide]: the half-inhibitory concentration (IC50) in experiment [1] and in experiment [2] was greater than 300 nM in each case.

Regarding `COc1cc2nccc(Oc3ccc(NC(=O)c4c(C)n(C)c(C)c(C(=O)O)c4=O)cc3F)c2nc1OC` [Compound 92, 5-[[4-[(6,7-Dimethoxy-1,5-naphthyridin-4-yl)oxy]-3-fluorophenyl]carbamoyl]-1,2,6-trimethyl-4-oxopyridine-3-carboxylic acid], the IC50 in experiment [1] and in experiment [2] was greater than 300 nM in each case.

In the case of `COc1cc2nccc(Oc3ccc(NC(=O)c4c(C)nc(C)c(C(=O)N(C)C)c4O)cc3F)c2nc1OC` [Compound 93, 3-N-[4-[(6,7-Dimethoxy-1,5-naphthyridin-4-yl)oxy]-3-fluorophenyl]-4-hydroxy-5-N,5-N,2,6-tetramethylpyridine-3,5-dicarboxamide], the IC50 in experiment [1] was greater than 300 nM; in experiment [2] it was no more than 100 nM.

Regarding `COc1cc2nccc(Oc3ccc(NC(=O)c4c(C)nc(C)c(C(=O)NC(C)C)c4O)cc3F)c2nc1OC` [Compound 94, 3-N-[4-[(6,7-Dimethoxy-1,5-naphthyridin-4-yl)oxy]-3-fluorophenyl]-4-hydroxy-2,6-dimethyl-5-N-propan-2-ylpyridine-3,5-dicarboxamide], the values for the IC50 in experiment [1] and in experiment [2] were no more than 100 nM and greater than 300 nM, respectively.

With `COc1cc2nccc(Oc3ccc(NC(=O)c4c(C)n(C)c(C)c(C(=O)N(C)C)c4=O)cc3F)c2nc1OC` [Compound 95, 5-N-[4-[(6,7-Dimethoxy-1,5-naphthyridin-4-yl)oxy]-3-fluorophenyl]-3-N,3-N,1,2,6-pentamethyl-4-oxopyridine-3,5-dicarboxamide], the IC50 in experiment [1] and in experiment [2] was greater than 300 nM throughout.

As for `COc1cc2nccc(Oc3ccc(NC(=O)c4c(C)n(C)c(C)c(C(=O)NC5CC5)c4=O)cc3F)c2nc1OC` [Compound 96, 3-N-Cyclopropyl-5-N-[4-[(6,7-dimethoxy-1,5-naphthyridin-4-yl)oxy]-3-fluorophenyl]-1,2,6-trimethyl-4-oxopyridine-3,5-dicarboxamide], the IC50 in experiment [1] and in experiment [2] was greater than 300 nM each time.

`CNC(=O)c1c(C)nc(C)c(C(=O)Nc2ccc(Oc3ccnc4cc(OC)c(OC)nc34)c(F)c2)c1O` [Compound 97, 3-N-[4-[(6,7-Dimethoxy-1,5-naphthyridin-4-yl)oxy]-3-fluorophenyl]-4-hydroxy-5-N,2,6-trimethylpyridine-3,5-dicarboxamide]: the IC50 in experiment [1] and in experiment [2] was greater than 300 nM in each case.

Turning to `COc1cc2nccc(Oc3ccc(NC(=O)c4c(C)nc(C)c(C(=O)NC5CC5)c4O)cc3F)c2nc1OC` [Compound 98, 5-N-Cyclopropyl-3-N-[4-[(6,7-dimethoxy-1,5-naphthyridin-4-yl)oxy]-3-fluorophenyl]-4-hydroxy-2,6-dimethylpyridine-3,5-dicarboxamide], the IC50 in experiment [1] and in experiment [2] was greater than 300 nM in each case.

Take `COc1cc2nccc(Oc3ccc(NC(=O)c4c5n(c(C)c(C6=CCCC6)c4=O)CCOC5)cc3)c2nc1OC` [Compound 99, 7-(Cyclopenten-1-yl)-N-[4-[(6,7-dimethoxy-1,5-naphthyridin-4-yl)oxy]phenyl]-6-methyl-8-oxo-3,4-dihydro-1H-pyrido[2,1-c][1,4]oxazine-9-carboxamide]: the IC50 in experiment [1] and in experiment [2] was no more than 100 nM throughout.

Take `COc1cc2nccc(Oc3ccc(NC(=O)c4c5n(c(C)c(C6=CCCCC6)c4=O)CCOC5)cc3)c2nc1OC` [Compound 100, 7-(Cyclohexen-1-yl)-N-[4-[(6,7-dimethoxy-1,5-naphthyridin-4-yl)oxy]phenyl]-6-methyl-8-oxo-3,4-dihydro-1H-pyrido[2,1-c][1,4]oxazine-9-carboxamide]: the half-maximal inhibitory concentration (IC50) in experiment [1] and in experiment [2] was no more than 100 nM throughout.

In the case of `COc1cc2nccc(Oc3ccc(NC(=O)c4c5n(cc(C6=CCCCC6)c4=O)CCOC5)cc3)c2nc1OC` [Compound G1-5, 7-(Cyclohexen-1-yl)-N-[4-[(6,7-dimethoxy-1,5-naphthyridin-4-yl)oxy]phenyl]-8-oxo-3,4-dihydro-1H-pyrido[2,1-c][1,4]oxazine-9-carboxamide], the IC50 in experiment [1] and in experiment [2] was no more than 100 nM throughout.

For the compound `COc1cc2nccc(Oc3ccc(NC(=O)c4c5n(cc(C6=CCOCC6)c4=O)CCOC5)cc3)c2nc1OC` [Compound G1-8, 7-(3,6-Dihydro-2H-pyran-4-yl)-N-[4-[(6,7-dimethoxy-1,5-naphthyridin-4-yl)oxy]phenyl]-8-oxo-3,4-dihydro-1H-pyrido[2,1-c][1,4]oxazine-9-carboxamide], the IC50 is no more than 100 nM in experiment [1] and greater than 300 nM in experiment [2].
